# Assay results as given in publication PMC4667193 (Scientific Reports, 2015).
# What was measured:
# [1] = system: rat primary hippocampal cell culture; assay: MTT viability assay, AEME-induced neurotoxicity; assay type: cell-based; details: 10 nM antagonist/inhibitor added 30 minutes prior to 10^−3 M AEME, 24 hours, % of control
# Procedure: Neuronal viability was evaluated in the hippocampal cell culture using the 3-(4,5-dimethylthiazol-2-yl)-2,5-diphenyltetrazolium bromide (MTT; Sigma) reduction assay, with some modification. Briefly, after 24 hours of incubation with 10^−3 M AEME in the absence and in the presence of 10 nM pirenzepine hydrochloride (M1 selective antagonist; Sigma), 10 nM p-F-HHSiD (M3 selective antagonist; Sigma) and the specific inhibitor of different isoforms of PLC U73122 (10 nM)[55] (Sigma), all the medium was removed, and 100 μL of MTT solution, containing 5 mg/mL MTT in PBS and neurobasal medium without phenol red (1:9, v/v) were added. After 3 hours of incubation with MTT at 37 °C in a humidified atmosphere of 5% CO2, the MTT solution was removed and 200 μL of dimethyl sulfoxide was added to each well. After 30 minutes of shaking, the absorbance was measured at 570 nm in a multiwell plate reader (BioTek Synergy H1 Hybrid Reader). Potassium chloride (250 mM) was used as a positive control of neuronal death. Muscarinic antagonists, as well as the iPLC, were added 30 minutes prior to incubation with AEME. The antagonist concentration used was near the pKi[25][56]. A control containing 0.002% DMSO was used, since the iPLC stock solution was previously dissolved in this solvent. The assay was performed in quadruplicate, and the results were expressed as a percentage of the control value.
# [2] = system: rat primary hippocampal cell culture; assay: total [^3H]inositol phosphate accumulation in hippocampal cells; assay type: cell-based; details: 10^−8 to 10^−3 M
# Procedure: Hippocampal cells (1 × 10^6 cells/well) were allowed to equilibrate for 10 minutes with a nutrient solution of the following composition (mM): NaCl 157.00; KCl 5.60; CaCl2 0.27; MgCl2 3.00; NaHCO3 1.80; glucose 5.50 (pH 7.0–7.2) at 37 °C under constant shaking. Cells were incubated with 5 μCi of myo[^3H]inositol (specific activity 18.0 Ci/mmol) for 80 minutes, and lithium chloride (10 mM) for additional 30 minutes. Afterwards, the cells were incubated in the absence (basal level) and in the presence of carbachol (positive control) and AEME (10^−8 to 10^−3 M) for 10 minutes. Cells were removed from the plate using a 0.1 M NaOH solution and washed three times with nutrient solution, transferred to 2 mL of methanol:chloroform (2:1 v-v) at 4 °C and homogenized with a Ultra-Turrax T25 homogenizer at 9500 rpm. Chloroform (0.62 mL) and H2O (0.93 mL) were added to the homogenate, and the solution was centrifuged for 5 minutes at 1,000× g to separate aqueous and organic phases. Total [^3H]inositol phosphate was measured as previously described by Ascoli et al.[45] with slight modification. The aqueous layer was neutralized with 0.1 M HCl and then mixed with 1 mL anion-exchange resin (Dowex AG-X8, formate form, 200–400 mesh), allowed to equilibrate for 30 minutes at room temperature, under agitation, and centrifugated at 1,000× g, for 5 minutes at 4 °C. The resin was then washed sequentially, with 10 mM myo-inositol (2 mL) and 5 mM sodium tetraborate/60 mM sodium formate (2 mL). The resin was incubated for 30 minutes at room temperature with 2 mL of 0.1 M formic acid/1 M ammonium formate). The total [^3H]inositol phosphate was eluted and placed in scintillation vials containing OptiPhase HiSafe 3. The amount of radioactivity was determined in scintillation β-counter (LS 6500 IC, Beckman). Total [^3H]inositol phosphate was expressed as percentage above basal level.
structure (smiles),measurement,setting,value
"Cl.O[Si](CCCN1CCCCC1)(c1ccc(F)cc1)C1CCCCC1 (centres unmarked) [p-F-HHSiD, p-fluorohexahydro-sila-difenidol hydrochloride]",viable cells,[1],85.4%
CN1CCN(CC(=O)N2c3ccccc3C(=O)Nc3cccnc32)CC1 [pirenzepine],viable cells,[1],98.4%
COc1ccc2c(c1)CC[C@@H]1[C@@H]2CC[C@]2(C)[C@@H](NCCCCCCN3C(=O)C=CC3=O)CC[C@@H]12 [U73122],viable cells,[1],102.6%
"C[N+](C)(C)CCOC(N)=O [carbachol, reference compound]",effect on total [^3H]inositol phosphate,[2],concentration-dependent increase
same,concentration giving maximum inositol phosphate accumulation,[2]; 10 minutes,10^−5 M
